Measured values published in patent US12161116B1, “Ethyl-2-{[(2,4-dichlorobenzoyl carbamothioyl]amino}-4,5,6,7-tetrahydro-1-benzothiophene-3-carboxylate as an eco-friendly insecticidal agent against Spodoptera littoralis (boisd.)” (priority 2023, dated 2024).
≈ marks a conversion by molar mass, not a printed value. Where two headings read alike, the source gives them in different places.

Test system: Spodoptera littoralis
Experiment: Insecticidal bioassay screening (castor leaf dip) on second and fourth instar larvae
Format: in vivo
Details: for Toxicity index %: 72 hrs, Diflubenzuron's LC50 / the compound's LC50 × 100; for LC90 (mg/L) at 95%: after 72 hrs of treatment, treated castor leaves; for LC50: Spodoptera littoralis, in Gossypium hirsutum, foliar, 72 h
Experimental: Five concentrations (200, 100, 50, 25, 12.5 ppm) were designed for this synthetic compound and the reference Diflubenzuron compound as the dynamic ingredients based on mg/L via diluting the commercial formulation.
In this experiment, castor leaves are immersed in each of the previously prepared concentrations of the components for 10 seconds and then left to dry for 60 minutes. Larvae of the second and fourth instars of each checked strain are prepared with treated leaves in gauze-covered glass containers for 72 hrs. An untreated control is made in which leaves are dipped in triton x-100 and distilled water only. Then the preserved leaves were removed & fresh, untreated leaves were provided for 72 hours. Three replicates (10 larvae each) were checked for each concentration. Daily inspection was carried out for all treatments and mortality percentages were recorded 3 days (72 hours) after treatment. The average mortality percentage was corrected employing Abbott's formula. The corrected mortality rate for each of the previously synthesized compounds is statistically calculated according to Finney (1970). Through this rate, the corresponding concentration test lines (LDP lines) are assessed.

[1] = read-out: LC50 (mg/L) at 95%, 2nd instar larvae, after 72 hrs of treatment, treated castor leaves
[2] = read-out: LC50 (mg/L) at 95%, 4th instar larvae, after 72 hrs of treatment, treated castor leaves

SMILES | Toxicity index % (2nd instar larvae) [%] | LC90 (mg/L) at 95% (2nd instar larvae) [mg/L] | Toxicity index % (4th instar larvae) [%] | LC90 (mg/L) at 95% (4th instar larvae) [mg/L] | LC50 [1] [mg/L] | LC50 [2] [mg/L]
O=C(NC(=O)c1c(F)cccc1F)Nc1ccc(Cl)cc1 [Diflubenzuron] | 100 | 520.0 (≈ 1670 µM) | 100 | 1540.5 (≈ 4960 µM) | 45.2 (≈ 145 µM) | 144 (≈ 464 µM)
CCOC(=O)c1c(NC(=S)NC(=O)c2ccc(Cl)cc2Cl)sc2c1CCCC2 [Ethyl-2-{[(2,4-dichlorobenzoyl)carbamothioyl]amino}-4,5,6,7-tetrahydro-1-benzothiophene-3-carboxylate] | – | – | – | – | ~270 (≈ 591 µM) | ~631 (≈ 1380 µM)
